The source of these data is patent publication US8268874B2, “Anti-cancer compounds, synthesis thereof, and methods of using same” (University of Notre Dame du Lac, priority 2008, dated 2012).

Where two headings read alike, the source gives them in different places.

Test [1] has as its system human breast cancer cell line MCF-7. Kind of test: NCI anti-cancer drug screen, growth inhibition of MCF-7 cells. In kind it is cell-based. From the text:
(§1) For additional details pertaining to the assay, see, for example, Shoemaker, R. H., The NCI60 Human Tumour Cell line Anticancer Drug Screen, Nature Reviews, 6: 813-823, 2006, the disclosure of which is hereby incorporated by reference in its entirety.
(§2) Briefly, the cell lines comprising the National Cancer Institute Anti-cancer Drug Screen panel were obtained and processed as described previously. After an initial acquisition, in vitro expansion was followed by cryopreservation of a large number of master stock samples, for serial rethawing at 20-passage intervals. The parental cells included the small cell lung carcinoma cell line UMCC-1, the human leukemia cell line HL-60, estrogen receptor-positive MCF7 and ZR-75B human breast carcinoma cells, and estrogen receptor-negative MDA-MB231 human breast carcinoma cells. The parental cells were grown in monolayers or in suspension in Eagle's minimum essential medium containing 10% fetal bovine serum, 2 mM L-glutamine, 100 units/ml penicillin, and 100 μg/ml streptomycin in 5% CO2 at 37° C.
(§3) The current version of COMPARE is configured to calculate pairwise correlations with the log10 of one of the specific National Cancer Institute cell line activity parameters GI50, TGI, or LC50. The GI50 is the National Cancer Institute designation for a time zero-corrected IC50 value and is defined as the concentration of an agent that causes a 50% growth inhibition. Thus, log10 (GI50 values) for a seed or probe compound is correlated with the corresponding data from each compound in a database.

For the next test, the system named is PC-3 (Prostate). Kind of test: NCI anti-cancer drug screen, growth inhibition of PC-3 cells. It is filed as cell-based. The conditions noted are these: Homo sapiens; for IC50: Table 5.
Description: as §1, §2, §3
Various analogs of the oxazole triazole scaffold were prepared and tested for their anti-cancer activity in various cellular assays (testing was done as described previously).

In a further test the test system is M. tuberculosis H37Rv. The test is described as follows: In vitro anti-tuberculosis activity, standard GAST assay. In kind it is cell-based, Mycobacterium tuberculosis. The conditions noted are these: in words.
Test [2] has as its system vincristine-resistant leukemia cell line, HL-60 VCR, that overexpresses p-glycoprotein. Kind of test: In vitro anti-cancer activity against HL-60 VCR cells. It is filed as cell-based, human. Conditions: Table 1, p-glycoprotein overexpressing.
Description: as §1, §2, §3

Test [3] relates to human leukemia cell line HL-60. The test is described as follows: In vitro anti-cancer activity against HL-60 cells. In kind it is cell-based. Conditions: Table 1.
Description: as §1, §2, §3

In the next test the test system is RXF 393 (Renal). The test is described as follows: NCI anti-cancer drug screen, growth inhibition of RXF 393 cells. It is filed as cell-based. Conditions: Homo sapiens, Table 5.
Description: as §1, §2
(§4) The current version of COMPARE is configured to calculate pairwise correlations with the log10 of one of the specific National Cancer Institute cell line activity parameters GI50, TGI, or LC50. […]

The next test deals with cell cycle. Kind of test: Cell cycle arrest (FIG. 5). In kind it is cell-based. From the text:
FIG. 5 illustrates cell cycle arrest showing G2/M-phase arrest in cells treated with 1,2,3-triazole 9c (ND-6732), in accordance with various embodiments.
Without being bound by theory, it is believed that the anti-cancer activity of various disclosed compounds disclosed herein is due to antimitotic activity.

Test [4] has as its system multiple cell lines of leukemia. The test is described as follows: NCI assay, multiple leukemia cell lines (FIG. 2). In kind it is cell-based, human. Conditions: applied at nanomolar concentrations.
Description: FIG. 2 illustrates the potent anti-cancer activity of various compounds disclosed herein in the NCI assay using multiple leukemia cell lines, in accordance with various embodiments.
as §1

For another test, the system named is SR (Leukemia). Kind of test: NCI anti-cancer drug screen, growth inhibition of SR cells. It is filed as cell-based. Conditions: Homo sapiens, Table 5.
Description: as §1, §2, §4

For another test, the system named is CAKI-1 (Renal). Kind of test: NCI anti-cancer drug screen, growth inhibition of CAKI-1 cells. In kind it is cell-based. The conditions noted are these: Homo sapiens, Table 5.
Description: as §1, §2, §4

Test [5] relates to multiple colon cancer cell lines. Kind of test: NCI assay, multiple colon cancer cell lines (FIG. 3). It is filed as cell-based, human. Conditions: applied at nanomolar concentrations.
Description: FIG. 3 illustrates the potent anti-cancer activity of various compounds disclosed herein in the NCI assay using multiple colon cancer cell lines, in accordance with various embodiments.
as §1

[6] abbreviates: Homo sapiens, MCF7, Table 2, SAR truncation of aryl ether moiety, read-out: MCF7 IC50.
Setting [7] is: Homo sapiens, MCF7, Table 5, read-out: IC50 MCF-7 (Breast).
Where [8] appears, read: Homo sapiens, MCF7, Table 3, SAR truncation of aryl carboxamide moiety, read-out: MCF7 IC50.
[9] abbreviates: Homo sapiens, MCF7, read-out: IC50 MCF-7 (Breast).
Setting [10] is: MCF7, Table 1, human breast cancer cell line MCF-7, read-out: IC50 MCF-7.

Consider `C#CCNC(=O)c1coc(-c2ccccc2)n1` [Compound 8a], for which, in test [1] (setting [6]), the IC50 (as a rule, the concentration at which inhibition is half-maximal) is more than 20000 nM.
Take `COc1ccc(-c2nc(CNCc3cn(Cc4ccc(Oc5ccccc5)cc4)nn3)co2)cc1` [ND-008169]: the half-maximal inhibitory concentration (IC50) is 10000 nM with PC-3 (Prostate) and 3000 nM in test [1] (setting [7]).
For the compound `O=C(NCc1cn(Cc2cccc(Oc3ccccc3)c2)nn1)c1ccccc1` [Compound 16], in [1] (setting [8]), the half-maximal inhibitory concentration (IC50) stood at 200 nM.
For the compound `O=C(NCc1cn(Cc2cccc(Oc3ccccc3)c2)nn1)c1cocn1` [ND-008505], the IC50 (in the test on PC-3 (Prostate); in test [1] (setting [7])) was 1000 nM in each case.
Regarding Mycobactin S [reference compound], in the test with M. tuberculosis H37Rv, the anti-tuberculosis activity entry was “exhibits anti-tuberculosis activity”.
As for `CCCCCCCCn1cc(CNCc2coc(-c3ccc(OC)cc3)n2)nn1` [ND-008171], the IC50 in the test with PC-3 (Prostate) was more than 100000 nM; in [1] (setting [7]), 15000 nM.
For `COc1ccc(-c2ccc(CNCc3cn(Cc4ccc(Oc5ccccc5)cc4)nn3)s2)cc1` [ND-008174], in that order: 10000 nM and 3000 nM.
The matching figures for `O=C(NCc1cn(Cc2cccc(Oc3ccccc3)c2)nn1)c1ccccc1` [ND-008506]: 500 nM and 200 nM.
`Cc1ccc(-c2nc(C(=O)NCc3cn(Cc4cccc(O[Si](C)(C)C(C)(C)C)c4)nn3)co2)cc1` [ND-008468]: the 50% inhibitory concentration (IC50) with PC-3 (Prostate) was 20000 nM; in test [1] (setting [9]), 15000 nM.
For `COc1ccc(CNC(=O)c2coc(-c3cccc(Cl)c3)n2)cc1OC` [Compound 3], the anti-tuberculosis activity result in the test with M. tuberculosis H37Rv is “active against M. tuberculosis”.
In the case of `Cc1ccc(Cn2cc(CNC(=O)c3coc(-c4ccc(C)cc4)n3)nn2)cc1` [ND-008465], the results for the IC50 (with PC-3 (Prostate); in test [1] (setting [7])) were 20000 nM and 8000 nM, respectively.
As to `COc1cc2c(cc1O)CC[C@@H]1[C@@H]2CC[C@]2(C)[C@@H](O)CC[C@@H]12` [2-methoxyestradiol], the IC50 turned out to be 1300 nM in test [1] (Table 1, human breast cancer cell line MCF-7, read-out: IC50 MCF-7); 48000 nM in test [2]; 9150 nM in [3].
In the case of `O=C(OCc1ccccc1)[C@@H]1COC(c2ccccc2OCc2ccccc2)=N1` [Compound 2], the anti-tuberculosis activity result in the test with M. tuberculosis H37Rv is “exhibited anti-tuberculosis activity with potency similar to that of Mycobactin S”.
As for `O=C(NCc1cn(Cc2cccc(Oc3ccccc3)c2)nn1)c1coc(-c2ccccc2)n1` [Compound 9c], the half-inhibitory concentration (IC50) in the test with RXF 393 (Renal) turned out to be 299 nM; with PC-3 (Prostate), 504 nM; in [1] (setting [6]), 500 nM; in test [1] (setting [7]), 302 nM; in test [1] (setting [10]) it was 500 nM; in the test on SR (Leukemia), 484 nM. In addition, the half-inhibitory concentration (IC50) was found to be 12200 nM in [2] (Homo sapiens, HL60/VCR); 392 nM with CAKI-1 (Renal); 7900 nM in test [3]. Moreover, the cell cycle arrest result in the test with cell cycle is “cell cycle arrest at the G2M phase of mitosis”. Besides, the GI50 (as a rule, the concentration giving 50% growth inhibition) was 504 nM in the test with PC-3 (Prostate) and 302 nM in [1] (Homo sapiens, MCF7). Further, the “growth inhibition of multiple cell lines of leukemia” value in test [4] was not below 50%. The “growth inhibition of multiple cell lines of colon cancer” value in test [5] was not below 50%.
For `CC[C@]1(O)C[C@H]2CN(CCc3c([nH]c4ccccc34)[C@@](C(=O)OC)(c3cc4c(cc3OC)N(C=O)[C@H]3[C@@](O)(C(=O)OC)[C@H](OC(C)=O)[C@]5(CC)C=CCN6CC[C@]43[C@@H]65)C2)C1` [vincristine], the half-inhibitory concentration (IC50) in [1] (setting [10]) is 200 nM; in test [2] (Homo sapiens, HL60/VCR), more than 100000 nM; in test [3] it was 570 nM.
Take `CC(C)(C)[Si](C)(C)Oc1cccc(Cn2cc(CNC(=O)c3coc(-c4ccc(Cl)cc4)n3)nn2)c1` [ND-008183]: the half-maximal inhibitory concentration (IC50) with PC-3 (Prostate) was more than 50000 nM; in test [1] (setting [9]), 13000 nM.
Turning to `CC(=O)NCc1cn(Cc2cccc(Oc3ccccc3)c2)nn1` [ND-008492], the 50% inhibitory concentration (IC50) in the test with PC-3 (Prostate) was determined as 17000 nM; in [1] (setting [7]), 6000 nM.
For `CC(=O)NCc1cn(Cc2cccc(Oc3ccccc3)c2)nn1` [Compound 17], in test [1] (setting [8]), the IC50 was 6000 nM.
For `O=C(NCc1cn(Cc2ccccc2)nn1)c1coc(-c2ccccc2)n1` [Compound 9a], the concentration for half-maximal inhibition (IC50) in test [1] (setting [6]) worked out at 4000 nM.
Regarding `O=C(NCc1cn(C23CC4CC(CC(C4)C2)C3)nn1)c1coc(-c2ccc(Cl)cc2)n1` [ND-008471], the IC50 (with PC-3 (Prostate); in test [1] (setting [7])) was more than 20000 nM each time.
On to `O=C(NCc1cn(Cc2cccc(Oc3ccccc3)c2)nn1)c1ccccn1` [Compound 14], for which the IC50 in test [1] (setting [8]) was 70 nM.
Regarding `CCCCCCCCn1cc(CNC(=O)c2coc(-c3ccc(C)cc3)n2)nn1` [ND-008469], the half-maximal inhibitory concentration (IC50) in the test on PC-3 (Prostate) is more than 20000 nM; in [1] (setting [7]), 20000 nM.
The matching figures for `COc1ccc(-c2nc(C(=O)Nc3cn(Cc4ccc(Oc5ccccc5)cc4)nn3)co2)cc1` [ND-007887]: 1250 nM and 937 nM.
The matching figures for `Cc1ccc(-c2nc(C(=O)NCc3cn(Cc4cccc(Oc5ccccc5)c4)nn3)co2)cc1` [ND-008467]: 1000 nM and 300 nM.
With `O=C(NCc1cn(Cc2cccc(Oc3ccccc3)c2)nn1)c1cocn1` [Compound 15], in [1] (setting [8]), the IC50 is 1000 nM.
In the case of `Cc1ccc(-c2nc(C(=O)NCc3cn(C45CC6CC(CC(C6)C4)C5)nn3)co2)cc1` [ND-008470], the 50% inhibitory concentration (IC50) (in the test with PC-3 (Prostate); in test [1] (setting [7])) was more than 20000 nM throughout.
With `O=C(NCc1cn(Cc2cccc(Oc3ccccc3)c2)nn1)c1coc(-c2ccc(Cl)cc2)n1` [ND-008186], the values for the IC50 (with PC-3 (Prostate); in test [1] (setting [7])) were 2400 nM and 4000 nM, respectively.
The matching figures for `O=C(NCc1cn(Cc2cccc(Oc3ccccc3)c2)nn1)c1ccccn1` [ND-008504]: 300 nM and 150 nM.
For `OCc1cn(Cc2cccc(Oc3ccccc3)c2)nn1` [ND-008493], in that order: more than 20000 nM and more than 20000 nM.
